Laboratory results reported in article PMC8998355, “Diversity-Oriented Synthesis Catalyzed by Diethylaminosulfur-Trifluoride—Preparation of New Antitumor Ecdysteroid Derivatives” (International Journal of Molecular Sciences, 2022).

Experiments:
[1] = set-up: method as in PMID 34825653; conditions: cited from earlier work
[2] = tested on: L5178YMDR cells (ABCB1-expressing); assay: MTT cytotoxicity assay (24 h, 1 × 10^4 cells); assay type: cell-based; conditions: Mus musculus, 24 h MTT, n = 3, read-out: Cytotoxicity (IC50 ± SD)
Protocol: (§1) To assess the compounds’ effect on cell growth and viability, we used two different experimental setups of MTT assay. This allowed a comparative evaluation of results obtained from a short-term (24 h) treatment of a relatively higher number (10,000) of cells and those from a long-term (72 h) treatment of a lower cell number (6000), which makes it possible to gain some insight into the cytotoxic vs. cytostatic properties of the compounds. Even though MTT assay is an endpoint detection method, i.e., it provides a single readout of viable cells at the end of the experiment, such a comparison offers a reliable tool to identify antiproliferative activity of compounds that are not cytotoxic.
(§2) L5178Y mouse T-cell lymphoma cells (ECACC Cat. No. 87111908) were obtained from FDA, Silver Spring, MD, USA. These were transfected with pHa MDR1/A retrovirus as described previously. ABCB1-expressing L5178YMDR cells were selected by culturing the infected cells with colchicine. The cell lines were cultured in McCoy’s 5A medium supplemented with 10% heat inactivated horse serum, 2 mM L-glutamine, and penicillin–streptomycin mixture.
(§3) MTT assay was performed in 96-well flat-bottomed microtiter plates as described before. Briefly, a 10 mM concentration stock solution in DMSO was prepared for each compound. These were diluted in 100 μL of McCoy’s 5A medium. Subsequently, 1 × 10^4 (cytotoxicity assay) or 6 × 10^3 (antiproliferative assay) T-cell mouse lymphoma cells in 100 μL of medium were added to each well, except for the medium control wells.
(§4) The culture plates were further incubated at 37 °C for 24 h (cytotoxicity assay) or 72 h (antiproliferative assay); at the end of the incubation period, 20 μL of MTT solution (from a 5 mg/mL stock) was added to each well. After incubation at 37 °C for 4 h, 100 μL of SDS solution (10% in 0.01 M HCI) was added to each well and the plates were further incubated at 37 °C overnight. The cell growth was determined by measuring the optical density at 540 nm (ref. 630 nm) with a Multiscan EX ELISA reader (Thermo Labsystems, Cheshire, WA, USA). IC50 values were calculated by variable slope nonlinear regression using the log(inhibitor) vs. normalized response of GraphPad Prism 5.01 (GraphPad Software Inc., San Diego, CA, USA).

[3] = tested on: L5178Y mouse T-cell lymphoma cells; assay: MTT cytotoxicity assay (24 h, 1 × 10^4 cells); assay type: cell-based; conditions: 24 h MTT, n = 3, read-out: Cytotoxicity (IC50 ± SD)
Protocol: as §1, §2, §3, §4

[4] = tested on: MRC-5 human embryonal lung fibroblasts; assay: MTT antiproliferative assay (72 h); assay type: cell-based; conditions: Homo sapiens, MRC5; MRC-5, 72 h MTT, n = 3; read-out: Antiproliferative Effect (IC50 ± SD)
Protocol: as §1
(§5) MRC-5 human embryonal lung fibroblasts (CCL-171, ATCC) were acquired from Sigma-Aldrich (Merck, KGaA, Darmstadt, Germany), and were cultured in EMEM medium containing 4.5 g/L glucose and supplemented with a non-essential amino acid mixture, a selection of vitamins, and 10% of FBS.
(§6) The adherent human fibroblast cells were seeded in 100 μL of EMEM medium overnight before each assay. Two-fold serial dilutions of the compounds (0.19–100 µM) were prepared in separate plates, then transferred to the plates containing the adherent cell lines.
as §4

[5] = tested on: L5178YMDR cells; assay: Combination assay with doxorubicin (checkerboard microplate method, MTT); assay type: cell-based, mouse; set-up: Dm (antilog of the x-intercept of the median-effect plot): unit not given here; conditions: for CIavg (weighted average CI): (CI50 + 2CI75 + 3CI90)/6
Protocol: Compounds 7, 10, 11, 13, and 14 had sufficient individual antiproliferative properties for their assessment of chemo-sensitizing activity. This was carried out as an antiproliferative assay on L5178YMDR cells in combination with doxorubicin, arranged according to the checkerboard microplate method.
The checkerboard microplate method was used to evaluate the compounds’ interaction with doxorubicin, as described before. Briefly, doxorubicin (2 mg/mL, Teva Pharmaceuticals, Budapest, Hungary) was serially diluted in the horizontal direction (100 µL per well), and the ecdysteroid was subsequently diluted in the vertical direction (50 µL per well). L5178YMDR cells were re-suspended in culture medium and added to each test well in 50 µL to contain 1 × 10^4 cells per well, and 50 µL of medium was added to the medium control wells. The plates were incubated for 72 h at 37 °C in a CO2 incubator and, at the end of the incubation period, the cell growth was determined by MTT assay as described above. Cell viability data were analyzed by the Calcusyn software using the Chou method, and drug interactions were expressed as combination index (CI) values, in which 0 < CI < 1, CI = 1, and CI > 1 refer to synergism, additivity, and antagonism, respectively.

[6] = tested on: L5178YMDR cells (ABCB1-expressing); assay: MTT antiproliferative assay (72 h, 6 × 10^3 cells); assay type: cell-based; conditions: Mus musculus, 72 h MTT, n = 3, read-out: Antiproliferative Effect (IC50 ± SD)
Protocol: as §1, §2, §3, §4

[7] = tested on: L5178Y mouse T-cell lymphoma cells; assay: MTT antiproliferative assay (72 h, 6 × 10^3 cells); assay type: cell-based; conditions: Mus musculus; L5178Y, 72 h MTT, n = 3; read-out: Antiproliferative Effect (IC50 ± SD)
Protocol: as §1, §2, §3, §4

[8] = MTT cytotoxicity assay (24 h); assay type: cell-based; conditions: human, MRC-5 human embryonal lung fibroblasts; MRC-5, 24 h MTT, n = 3; read-out: Cytotoxicity (IC50 ± SD)
Protocol: as §1, §5, §6, §4

[9] = target: T1, ABCB1 (Homo sapiens, UniProt P08183); assay: ABCB1 inhibition assay (rhodamine 123 accumulation, flow cytometry); assay type: cell-based; conditions: human, probe rhodamine 123 (5.2 µM), L5178YMDR, rhodamine 123 accumulation, n = 1
T1 construct: expressed in transfected cells; host or cells: L5178Y mouse T-cell lymphoma cells transfected with pHa MDR1/A retrovirus, selected with colchicine (L5178YMDR)
Protocol: ABCB1 inhibition was determined by the intracellular accumulation of rhodamin 123 as reported before. Briefly, 2 × 10^6 cells/mL of L5178Y and L5178YMDR cell lines were re-suspended in serum-free McCoy’s 5A medium and distributed in 0.5 mL aliquots into Eppendorf centrifuge tubes. The compounds were added at a final concentration of 2 or 20 μM and the samples were incubated for 10 min at room temperature. Tariquidar was used as positive control and DMSO as negative control; for the latter, no activity was observed. Subsequently, 10 μL (5.2 μM final concentration) of the ABCB1 substrate fluorescent dye rhodamine 123 was added and the cells were incubated further for 20 min at 37 °C, washed twice and re-suspended in 1 mL PBS for analysis. Fluorescence of the cell population was measured with a PartecCyFlow® flow cytometer (Partec, Münster, Germany). Mean fluorescence intensity percentage was calculated for the treated vs. untreated L5178YMDR cells. Inhibition percentage for the treated cells was calculated from the corresponding values of the untreated L5178Y and L5178YMDR cells, representing 100% and 0% inhibition, respectively.

[10] = drug ratio 11.6:1, with doxorubicin
[11] = drug ratio 23.1:1, with doxorubicin
[12] = drug ratio 46.4:1, with doxorubicin
[13] = drug ratio 23.2:1, with doxorubicin
[14] = drug ratio 92.8:1, with doxorubicin
[15] = drug ratio 185.6:1, with doxorubicin
[16] = drug ratio 371.2:1, with doxorubicin

SMILES: CC(C)(O)CC[C@@H](O)[C@](C)(O)[C@H]1CC[C@@]2(O)C3=CC(=O)[C@@H]4C[C@@H](O)[C@@H](O)C[C@]4(C)[C@H]3CC[C@]12C [20-hydroxyecdysone]
- MasR activity, in words [1]: agonist

SMILES: CC(=O)[C@H]1CC[C@@]2(F)C3=CC(=O)[C@@H]4C[C@H]5OC(C)(C)O[C@H]5C[C@]4(C)C3=CC[C@]12C [Compound 7]
- IC50 [2]: 57.5 ± 6.3 µM
- IC50 [3]: 38.6 ± 1.6 µM
- IC50 [4]: > 100 µM
- CI at ED75 [5, 10]: 0.76
- CI at ED90 [5, 10]: 0.59
- Dm (antilog of the x-intercept of the median-effect plot) [5, 10]: 4.05
- CIavg (weighted average CI) [5, 10]: 0.71
- CI at ED75 [5, 11]: 1.26
- CI at ED90 [5, 11]: 1.37
- Dm (antilog of the x-intercept of the median-effect plot) [5, 11]: 7.83
- CIavg (weighted average CI) [5, 11]: 1.30
- CI at ED75 [5, 12]: 0.84
- CI at ED90 [5, 12]: 0.60
- Dm (antilog of the x-intercept of the median-effect plot) [5, 12]: 11.56
- CIavg (weighted average CI) [5, 12]: 0.78
- IC50 [6]: 20 ± 2.4 µM
- IC50 [7]: 15.2 ± 1.9 µM
- IC50 at 24 h [8]: > 100 µM
- inhibition at 20 min, 2 µM [9]: -0.24%
- inhibition at 20 min, 20 µM [9]: 0.29%

SMILES: CC(=O)N[C@H]1CC[C@@]2(F)C3=CC(=O)[C@@H]4C[C@H]5OC(C)(C)O[C@H]5C[C@]4(C)[C@H]3CC[C@]12C [Compound 14]
- IC50 [2]: > 100 µM
- IC50 [3]: > 100 µM
- IC50 [4]: > 100 µM
- CI at ED75 [5, 13]: 0.73
- CI at ED90 [5, 13]: 0.63
- Dm (antilog of the x-intercept of the median-effect plot) [5, 13]: 9.04
- CIavg (weighted average CI) [5, 13]: 0.70
- CI at ED75 [5, 12]: 0.72
- CI at ED90 [5, 12]: 0.60
- Dm (antilog of the x-intercept of the median-effect plot) [5, 12]: 13.53
- CIavg (weighted average CI) [5, 12]: 0.68
- CI at ED75 [5, 14]: 0.86
- CI at ED90 [5, 14]: 0.74
- Dm (antilog of the x-intercept of the median-effect plot) [5, 14]: 20.47
- CIavg (weighted average CI) [5, 14]: 0.82
- CI at ED75 [5, 15]: 1.26
- CI at ED90 [5, 15]: 1.24
- Dm (antilog of the x-intercept of the median-effect plot) [5, 15]: 30.97
- CIavg (weighted average CI) [5, 15]: 1.25
- IC50 [6]: 65.9 ± 2.1 µM
- IC50 [7]: 71.6 ± 1.5 µM
- IC50 at 24 h [8]: > 100 µM
- inhibition at 20 min, 2 µM [9]: 0.2%
- inhibition at 20 min, 20 µM [9]: -0.12%

SMILES: CC(=O)[C@H]1CC[C@@]2(F)C3=CC(=O)[C@@H]4C[C@H]5OC(C)(C)O[C@H]5C[C@]4(C)[C@H]3CC[C@]12C [Compound 11]
- IC50 [2]: 81.9 ± 2.9 µM
- IC50 [3]: 91.9 ± 9.3 µM
- IC50 [4]: 10 ± 2.1 µM
- CI at ED75 [5, 13]: 0.56
- CI at ED90 [5, 13]: 0.41
- Dm (antilog of the x-intercept of the median-effect plot) [5, 13]: 7.00
- CIavg (weighted average CI) [5, 13]: 0.52
- CI at ED75 [5, 12]: 0.55
- CI at ED90 [5, 12]: 0.39
- Dm (antilog of the x-intercept of the median-effect plot) [5, 12]: 11.66
- CIavg (weighted average CI) [5, 12]: 0.51
- CI at ED75 [5, 14]: 0.53
- CI at ED90 [5, 14]: 0.38
- Dm (antilog of the x-intercept of the median-effect plot) [5, 14]: 15.83
- CIavg (weighted average CI) [5, 14]: 0.49
- CI at ED75 [5, 15]: 0.66
- CI at ED90 [5, 15]: 0.48
- Dm (antilog of the x-intercept of the median-effect plot) [5, 15]: 24.06
- CIavg (weighted average CI) [5, 15]: 0.61
- CI at ED75 [5, 16]: 0.72
- CI at ED90 [5, 16]: 0.55
- Dm (antilog of the x-intercept of the median-effect plot) [5, 16]: 28.63
- CIavg (weighted average CI) [5, 16]: 0.67
- IC50 [6]: 55.7 ± 5.9 µM
- IC50 [7]: 31.8 ± 2.1 µM
- IC50 at 24 h [8]: > 100 µM
- inhibition at 20 min, 2 µM [9]: -0.57%
- inhibition at 20 min, 20 µM [9]: -0.51%
